Source: patent publication US11357786B2, “Synthetic disugar hydrocarbons as natural analogs to control microbial behaviors” (Syracuse University, priority 2014, dated 2022)

System: PAO1-EGFP biofilm
Test: Biofilm on steel coupons, fluorescence / CLSM
Format: cell-based, Pseudomonas aeruginosa
Conditions: 160 μM, 24 h, LB media
Description: A crystal violet (CV) assay was used to measure the amount of PAO1 biofilm formed after 24 h of bacterial inoculation. The fluorescence of green fluorescent proteins (GFP) expressed by PAO1-GFP was measured to directly quantify bacterial adhesion on polystyrene black 96 well plates with and without maltose derivatives after 2 h of bacterial inoculation. To evaluate the potential of maltose derivatives as both anti-biofilm and anti-adhesion agents, they were compared to a brominated furanone (BF8) known to inhibit biofilm formation, and two generic surfactants, sodium dodecyl sulfate (SDS) and tetra (ethylene glycol) monododecyl ether (C12EG4OH). […] P. aeruginosa strain PAO1-EGFP that constitutively producing green fluorescent protein was allowed to form biofilm on sterile steel coupons.
Confocal laser scanning microscopy (CLSM) based biofilm inhibition assay. Steel coupons (˜1×1 cm) were washed with EtOH, dried under a stream of nitrogen and then sterilized in an autoclave. Overnight culture of PAO1/EGFP (OD600 ˜1.0) grown in LB media (supplemented with 300 μg/mL of carbenicillin), was sub-cultured to OD600˜0.01 and then the OD600 was allowed to reach ˜0.1. Aliquot (600 μL) of PAO1/EGFP subculture OD600˜0.1 was then added into the wells of a 24-well micro titer plate. DSHs were then introduced into the assigned wells to reach a resultant concentration of 160 μM. Bacterial sub-culture with no agent served as positive control. Sterile steel coupons were then placed into the wells and the plates were wrapped with saran wrap and incubated for 24 h at 37° C. under static conditions. After 24 hours, the steel coupons were removed and washed by dipping in PBS buffer (2 washes) and the dried by holding with a forcep and gently dabbing the edge on a bleached paper (KIM wipes). The dried steel coupons were viewed under confocal laser scanning microscope (CLSM). Images were taken at 4 random locations on each steel coupons. Z-stacked images were also taken to determine the relative thickness of the biofilm.

Row | Structure (SMILES) | PAO1-EGFP biofilm on stainless steel coupons (CLSM)
1 | CC(C)CCCC(C)CCCC(C)CCO[C@@H]1O[C@H](CO)[C@@H](O[C@@H]2O[C@H](CO)[C@@H](O)[C@H](O)[C@H]2O)[C@H](O)[C@H]1O (stereo partly drawn) [SFβC (12), saturated famesyl-β-cellobioside] | decreased the fluorescence signal significantly
2 | CC(C)CCCC(C)CCCC(C)CCO[C@H]1O[C@H](CO)[C@@H](O[C@@H]2O[C@H](CO)[C@@H](O)[C@H](O)[C@H]2O)[C@H](O)[C@H]1O (stereo partly drawn) [SFαC (13), saturated farnesyl-α-cellobioside] | decreased the fluorescence signal significantly
